In patent US20260053794A1, “SOMATOSTATIN RECEPTOR 2 AGONISTS AND USES THEREOF” (Exelixis, Inc., priority 2022, published 2026):

Target: T1, Somatostatin Receptor 2 (SSTR2) (Homo sapiens, UniProt P30874)
T1 construct: expressed in transfected cells
Assay: Biochemical Assay for Activation of Somatostatin Receptor 2 (SSTR2), Cisbio HTRF cAMP assay
Assay type: cell-based
Settings: average pEC50; HTRF cAMP assay in stably-transfected cell line expressing SSTR2; cells incubated with compounds for 1-2h
Experimental: Biochemical Assay for Activation of Somatostatin Receptor 2 (SSTR2)
Agonistic activation of SSTRs leads to an […] production of intracellular cAMP levels. Cisbio's homogeneous time-resolved fluorescence (HTRF) cAMP assay was used to measure cAMP concentration in an high-throughput format. Increase in intracellular cAMP concentrations was measuring using a stably-transfected cell line expressing SSTR2. Test compounds were dissolved in DMSO. Cells were incubated with compounds for 1-2h, and subsequently competitive binding of cAMP produced due to the activation of SSTR2 by the test compounds was measured using the Cisbio cAMP Gs dynamic assay system (Perkin Elmer, Bedford, MA).
The average pEC50 was determined for the test compounds.

T1 sequence (P30874 whole entry, species assumed): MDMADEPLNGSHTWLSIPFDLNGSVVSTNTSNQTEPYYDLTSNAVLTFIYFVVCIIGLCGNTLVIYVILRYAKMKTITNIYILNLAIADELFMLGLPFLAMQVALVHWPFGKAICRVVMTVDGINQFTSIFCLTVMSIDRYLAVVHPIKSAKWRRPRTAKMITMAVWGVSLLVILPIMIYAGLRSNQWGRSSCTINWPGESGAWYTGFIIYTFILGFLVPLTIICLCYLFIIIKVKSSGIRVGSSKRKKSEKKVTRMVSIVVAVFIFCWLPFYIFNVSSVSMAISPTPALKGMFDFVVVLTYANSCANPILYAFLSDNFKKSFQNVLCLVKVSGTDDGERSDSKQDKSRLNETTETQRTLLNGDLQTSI

| Compound | EC50 |
| --- | --- |
| N#Cc1cccc(-c2cc3ncc(-c4cc(F)cc(F)c4)c(N4CCC(N)CC4)c3o2)c1O [Compound 127, 3-(7-(4-aminopiperidin-1-yl)-6-(3,5-difluorophenyl)furo[3,2-b]pyridine-2-yl)-2-hydroxybenzonitrile] | 251 nM |
| CO[C@@H]1CN(c2c(-c3cc(F)cc(F)c3)cnc3[nH]c(-c4cc(F)cc(C(N)=O)c4)nc23)CC[C@H]1N [Compound 47] | 1000 nM |
| Cc1cc(F)cc(-c2cnc3ccc(-c4cc(F)cc(C(N)=O)c4)cc3c2O[C@H]2CC[C@H](N)C2)c1 [Compound 1, 3-(4-(((1S,3S)-3-aminocyclopentyl)oxy)-3-(3-fluoro-5-methylphenyl)quinolin-6-yl)-5-fluorobenzamide] | 0.316 nM |
| NC1CCN(c2c(-c3nc4cc(F)c(F)cc4[nH]3)cnc3ncc4ccc(F)cc4c23)CC1 [Compound 120] | 6310 nM |
| NCCCn1c(=O)n2c3ccccc3cc2c2cncc(-c3cc(F)cc(F)c3)c21 [Compound 105, 5-(3-aminopropyl)-4-(3,5-difluorophenyl)pyrido[4′,3′:4,5]pyrimido [1,6-a]indol-6(5H)-one] | > 10000 nM |
| COCOc1c(C#N)cccc1-c1ccc2ncc(-c3cc(F)cc(F)c3)c(N3CC4(CN(C(C)=O)C4)C3)c2c1 [Compound 139] | > 5010 nM |
| NC(=O)c1cc(F)cc(-c2nc3c(N4CCC(N)CC4)c(-c4cc(F)cc(F)c4)cnc3[nH]2)c1 [Compound 65] | 3160 nM |
| NC1CCN(c2c(-c3cc(F)cc(F)c3)cnc3ccc(-c4cc(F)cc(F)c4)cc23)CC1 [Compound 145] | 0.0316 nM |
| Cc1cc(F)cc(-c2cnc3ccc4cc3c2N2CCC(CC2)NCCCNC(=O)c2ccccc2-4)c1 [Compound 86] | 6310 nM |
| CO[C@@H]1CN(c2c(-c3cc(C)cc(F)c3)cnc3[nH]c(-c4cc(F)cc(C(N)=O)c4)nc23)CC[C@H]1N [Compound 53] | 1000 nM |
| Cc1cc(F)cc(-c2cnc3ccc4cc3c2N2CCC(CC2)NCC[C@H](N)COc2c(C#N)cccc2-4)c1 (single isomer, unassigned) [Compound 99] | 7.94 nM |
| CO[C@@H]1CN(c2c(-c3cc(F)cc(F)c3)cnc3[nH]c(-c4cccc(C#N)c4O)nc23)CC[C@H]1N [Compound 48] | 501 nM |
| NCCCN1Cc2ccc(F)cc2-c2cncc(-c3nc4cc(F)c(F)cc4[nH]3)c21 [Compound 108] | 126 nM |
| Cc1cc(F)cc(-c2cnc3c(nc(-c4cc(F)cc(C(N)=O)c4)n3C)c2N2CCC(N)CC2)c1 [Compound 35, 3-(7-(4-aminopiperidin-1-yl)-6-(3-fluoro-5-methylphenyl)-3-methyl-3H-imidazo[4,5-b]pyridin-2-yl)-5-fluorobenzamide] | 158 nM |
| Cc1cc(C)cc(-c2cnc3c(c2N2CCC(N)CC2)C(=O)N(c2ccc(F)c(F)c2)CC3)c1 [Compound 112] | 25.1 nM |
| N[C@@H]1CC[C@@H](Oc2c(-c3cc(F)cc(F)c3)cnc3ccc(-c4cc(F)cc(F)c4)cc23)C1 [Compound 14] | 12.6 nM |
| COc1cc(F)cc(-c2cnc3ccc(-c4cccc(C#N)c4O)cc3c2O[C@@H]2CC[C@H](N)C2)c1 [Compound 7] | 20 nM |
| COc1cc(F)cc(-c2cnc3c(nc(-c4cc(F)cc(C(N)=O)c4)n3C)c2N2CC[C@@H](N)[C@H](OC)C2)c1 [Compound 30] | 1000 nM |
| Cc1cc(F)cc(-c2cnc3ccc4cc3c2N2CCC(CC2)NC[C@@H](O)CCOc2c(C#N)cccc2-4)c1 (single isomer, unassigned) [Compound 100] | 2510 nM |
| Cc1cc(F)cc(-c2cnc3ccc(-c4ccccc4C4NCCCN4)cc3c2N2CCC(=O)CC2)c1 [Compound 162] | 1000 nM |
| NC1CCN(c2c(-c3cc(F)cc(F)c3)cnc3c(C(=O)O)cc(-c4cc(F)cc(F)c4)cc23)CC1 [Compound 149] | 0.398 nM |
| N#Cc1cccc2c1OCCO[C@H]1CN(CC[C@@H]1N)c1c(-c3cc(F)cc(F)c3)cnc3ccc-2cc13 [Compound 77] | 6.31 nM |
| Fc1cc(F)cc(-c2cnc3ccc4cc3c2N2CCC(CC2)NCCCCCOc2cccc-4c2)c1 [Compound 69] | 1.26 nM |
